Source: US6635234B1, “Preparation and use of radium-223 to target calcified tissues for pain palliation, bone cancer therapy, and bone surface conditioning” (Anticancer Therapeutic Inventions AS, priority 1999, dated 2003)
Values joined by “and” are separate entries in the source; they are usually repeats but may differ in a detail not shown here. Identical values can stand only once.

Assays:
[1] = test system: MT-1 human breast cancer cells; conditions: treatment seven days after tumour cell inoculation; cited from earlier work
[2] = Biodistribution of radium-223 in Balb/C mice; format: in vivo; conditions: for % of injected dose per gram, femur: 9 kBq in isotonic saline
Description: (§1) Methods: Young male Balb/C mice with a body weight of 19-21 g were injected with 9 kBq of ^223Ra in 150 μl of isotonic saline. Groups of five animals were sacrificed and dissected at 6 h and 3 days after injection. Sample weight was measured and samples were counted using (A) a “well type” NaI scintillation crystal (Harshaw Chemie BV, De Meern, Holland) combined with a Scaler Timer ST7 (NE Technology Ltd, Reading, UK) digital unit, (B) a Beckman LS 6500 (Beckman Instruments Inc. Fullerton, Calif., USA). Relative abundances of radionuclides were studied in blood, liver, kidney, and in standard samples with mother/daughter in equilibrium, using a Ge-detector (Canberra, Meriden, Conn., USA) combined with an amplifier and bias supply from EG&G Ortec (Oak Ridge, Tenn., USA).

[3] = Gamma spectroscopy of the 211Bi:223Ra ratio in tissues versus a standard solution; format: in vivo, Balb/C mice
Description: as §1
The ratio of ^211Bi: ^223Ra was in the spleen at the 6 hour point on average 54% compared to a standard solution. In liver and kidneys on the other hand, the ^211Bi: ^223Ra ratios in the samples were on the average 256 and 207% of the standards respectively. […] Also the ^211Bi activity in soft tissues was in general very low compared to bone activity of this nuclide. The ^211Bi in the soft tissues may have been generated from ^223Ra present in soft tissues.

[4] = Localization Index (211Bi vs 223Ra retention) in femur by gamma spectroscopy; format: in vivo, mice; conditions: average
Description: To examine if there was a difference in radioisotope retention between radium-223 and bismuth-211 in bone samples, gamma spectroscopic data for bone versus a standard solution with ^223Ra and daughter radionuclides in equilibrium was studied.
Methods: Gamma spectroscopy with a germanium detector (Canberra, Meriden, Conn., USA) was performed on samples of femur from mice immediately after sacrificing and dissecting the animals. Samples of a standard solution of ^223Ra and daughter radionuclides in equilibrium were studied. The distinct gamma peaks at 351.0 keV (^211Bi) and 154.2 keV (^223Ra) were used. A Localization Index (LI) was determined as follows:
E.g., BBi−^211Bi count rate in bone; SRa−^223Ra count rate in standard
Gamma spectra from five samples from the 6 h group and the 3 days group respectively were compared, to five and three samples from the standard solution respectively, using Student t-test for data columns.

[5] = Release of daughter isotopes from fragmented femur washed with PBS; format: in vivo, mice
Description: To study potential release of daughter isotopes after ^223Ra was incorporated in bone, due to either nuclear recoil or diffusion processes, femurs from five animals killed 6 h, and 5 animals killed 3 days after injection were examined.
Methods: The bones were cleaved longitudinally, to expose the red marrow (spongious) areas, and thereafter cut into small fragments of less than 3 mg. Thereafter the samples were washed with Dulbeccos PBS (Sigma-Aldrich CO. LTD., Irvine, UK) using centrifugation. The supernatant was removed, mixed with scintillation liquid (Insta-Gel 11 plus, Packard BioScience BV, Groningen, The Netherlands) and counted on a scintillation counter (Beckman Instruments Inc. Fullerton, Calif., USA). After one day sample counting was repeated. A difference in counts after correcting for ^223Ra decay between the two measurements was used as indication of release of daughter nuclide(s) from bone matrix.

[6] = test system: MT-1 human breast cancer cells; test: MT-1/nude rat model of skeletal metastases; format: in vivo, nude rats
Text: It has been developed animal models with experimental metastasis pattern resembling those frequently observed in human patients (Engebraaten and Fodstad, 1999). One of these models consists of MT-1 cells injected intracardially into nude rats and is characterized by the consistent development of hind leg paralysis in the animals.
Method: The therapeutic potential of radium-223 was studied in the MT-1/nude rat model where animals were inoculated with 1×10^6 MT-1 human breast cancer cells by injection into the left ventricle of the heart as described (Engebraaten and Fodstad,. 1999). These animals usually develop paralysis caused by growth of tumours in the spine. Groups of 4 and 5 animals each were then treated seven days later by receiving an intravenous injection of 200 μl of a vehicle solution without or with 10 kBq of radium-223 according to the invention.

[7] = bone samples; after radium-226 had been administered to dogs; cited from earlier work

SMILES: N.N.[Cl][Pt][Cl] [cisplatin]
- Effect on survival [1]: did not improve survival

SMILES: COc1cccc2c1C(=O)c1c(O)c3c(c(O)c1C2=O)C[C@@](O)(C(=O)CO)C[C@@H]3O[C@H]1C[C@H](N)[C@H](O)[C@H](C)O1 [doxorubicin]
- Effect on survival [1]: did not improve survival

SMILES: [223Ra] [radium-223]
- Femur to blood ratio ([2]; 6 h after injection): 129
- Femur to spleen ratio ([2]; 6 h after injection): 6.4
- Concentration in bone compared to soft tissues ([2]; 6 h and 3 days): selectively concentrated in bone
- Femur to blood ratio ([2]; 3 days after injection): 691
- Femur to spleen ratio ([2]; 3 days after injection): 23.7
- % of injected dose per gram, blood ([2]; 6 hours): 0.20 ± 0.23 % of injected dose per gram
- % of injected dose per gram, blood ([2]; 3 days): 0.05 ± 0.10 % of injected dose per gram
- % of injected dose per gram, brain ([2]; 6 hours): 0.04 ± 0.01 % of injected dose per gram
- % of injected dose per gram, brain ([2]; 3 days): 0.12 ± 0.12 % of injected dose per gram
- % of injected dose per gram, femur ([2]; 6 hours after injection): 25.86 ± 1.99 % of injected dose per gram
- % of injected dose per gram, femur ([2]; 3 days after injection): 34.55 ± 7.87 % of injected dose per gram
- % of injected dose per gram, heart ([2]; 6 hours): 0.10 ± 0.10 % of injected dose per gram
- % of injected dose per gram, heart ([2]; 3 days): 0.06 ± 0.07 % of injected dose per gram
- % of injected dose per gram, kidney ([2]; 6 hours): 4.04 ± 0.33 % of injected dose per gram
- % of injected dose per gram, kidney ([2]; 3 days): 0.38 ± 0.08 % of injected dose per gram
- % of injected dose per gram, large intestine ([2]; 6 hours): 2.30 ± 0.60 % of injected dose per gram
- % of injected dose per gram, large intestine ([2]; 3 days): 0.13 ± 0.02 % of injected dose per gram
- % of injected dose per gram, liver ([2]; 6 hours): 0.89 ± 0.18 % of injected dose per gram
- % of injected dose per gram, liver ([2]; 3 days): 0.22 ± 0.32 % of injected dose per gram
- % of injected dose per gram, lung ([2]; 6 hours): 0.59 ± 0.56 % of injected dose per gram
- % of injected dose per gram, lung ([2]; 3 days): 0.06 ± 0.07 % of injected dose per gram
- % of injected dose per gram, muscle ([2]; 6 hours): 0.72 ± 0.39 % of injected dose per gram
- % of injected dose per gram, muscle ([2]; 3 days): 0.30 ± 0.16 % of injected dose per gram
- % of injected dose per gram, small intestine ([2]; 6 hours): 0.79 ± 0.26 % of injected dose per gram
- % of injected dose per gram, small intestine ([2]; 3 days): 0.04 ± 0.03 % of injected dose per gram
- % of injected dose per gram, spleen ([2]; 6 hours): 4.06 ± 1.4 % of injected dose per gram
- % of injected dose per gram, spleen ([2]; 3 days): 1.46 ± 0.54 % of injected dose per gram
- Difference in relative distribution of radium-223 and its daughters (abundance of 211Bi) ([3]; bone and most soft tissues, gamma spectroscopy): no significant difference
- Ratio of 211Bi:223Ra, % of the standards ([3]; kidneys, average): 207%
- Ratio of 211Bi:223Ra, % of the standards ([3]; liver, average): 256%
- Ratio of 211Bi:223Ra compared to a standard solution ([3]; spleen, 6 hour point, average): 54%
- Localization Index LI=(BBi/SBi)/(BRa/SRa) ([4]; 6 h point, P=0.059): 0.85
- Localization Index LI=(BBi/SBi)/(BRa/SRa) ([4]; 3 day point, P=0.749): 0.97
- Activity dissolved in PBS during washing, compared to the total activity in bone ([5]; animals killed after 6 hours, average): 1.8%
- Translocation of daughter isotopes from bone ([5]; animals killed after 6 hours, probably): less than 2%
- Activity of washing solutions counted again, of the bone sample ([5]; animals killed after 6 hours, recounted after 12 h, average): 0.2%
- Counts in the washing solution compared to the background ([5]; animals killed after 3 days): no significant counts
- Translocation, below detection limit, of the total bone radioactivity ([5]; animals killed after 3 days, estimated detection limit): less than 1%
- Anti-tumour effect in animals with skeletal metastases ([6]; 10 kBq i.v.): significant anti-tumour effect
- Time to paralysis after tumour cell inoculation (individual animals) ([6]; 10 kBq i.v. seven days after inoculation, group of five animals, listed as 223Ra): 26 days and 40 days and 64 days
- Survival without signs of paralysis, two remaining animals (follow-up period) ([6]; 10 kBq i.v. seven days after inoculation, two of five animals): ≥ 90 days

SMILES: [226Ra] [radium-226]
- Radon-222 escaped from the bone [7]: 89.5-94.25%
